Structures can show the parent of a compound that is named as a salt. Where two headings read alike, the source gives them in different places.
Columns and labels:
[1] = test system: histamine-induced constriction of isolated tracheal smooth muscle of guinea pig; experiment: Inhibition of the histamine-induced constriction of isolated tracheal smooth muscle of guinea pig; details: Cavia porcellus, 0.25 h, isolated guinea pig trachea, read-out: Inhibition of the histamine-induced constriction of isolated tracheal smooth muscle of guinea pig pd'2 (converted)
Procedure: I Study on the Effects Against Spasmogenic Mediators [modified method of J. C. […] The investigation on isolated organs were carried out as follows. OHF Lt/R9 guinea pigs of both sexes weighing 300 to 400 g each were anaesthetized by pentobarbital. Their trachea was removed and sectioned in the opposite side to the site of smooth muscle in longitudinal direction. Subsequently, a strip-like preparation was obtained by […] cutting. […] A rest load of 0.5 g was used. Several washings were carried out during the incubation period of 30 minutes. The change in the tension of the tracheal smooth muscle was followed by using an isometric Grass FT-03 type tensiometer sensor device. A washing was made following the cumulative dose series of the given mediator (e.g. histamine). After reaching the base line, by 15 minutes after administration of the given concentration of the inhibitory (antiasthmatic) substance to be tested, the next cumulative dose series of the mediator was administered. In the case of an inhibitory action, the strength of effect, following the second dose series of the mediator, was […] in comparison to that of the first (control) series. For characterization of strength of the competitive antagonistic effect the pA2 value was determined according to the method of […] A pd'2 value was calculated [J. M. Van Rossum: Arch. Int.

[2] = test system: acetylcholine-induced constriction of the isolated tracheal smooth muscle of the guinea pig; experiment: Inhibition of the acetylcholine-induced constriction of isolated tracheal smooth muscle of guinea pig; details: Cavia porcellus, 0.25 h, isolated guinea pig trachea, read-out: pd'2 value against acetylcholine (converted)
Procedure: (§1) I Study on the Effects Against Spasmogenic Mediators
[modified method of J. C. Castillo et al.: Exp. Ther. 90, 104 (1947)]
(§2) The investigation on isolated organs were carried out as follows.
(§3) OHF Lt/R9 guinea pigs of both sexes weighing 300 to 400 g each were anaesthetized by pentobarbital. Their trachea was removed and sectioned in the opposite side to the site of smooth muscle in longitudinal direction. Subsequently, a strip-like preparation was obtained by serrately cutting.
The organ was suspended in an organ bath containing 35 ml of Krebs solution at 37° C. bubbled through by carbogen gas (consisting of 95% of oxygen and 5% of carbon dioxide).
(§4) A rest load of 0.5 g was used. Several washings were carried out during the incubation period of 30 minutes.
(§5) The change in the tension of the tracheal smooth muscle was followed by using an isometric Grass FT-03 type tensiometer sensor device. A washing was made following the cumulative dose series of the given mediator (e.g. histamine). After reaching the base line, by 15 minutes after administration of the given concentration of the inhibitory (antiasthmatic) substance to be tested, the next cumulative dose series of the mediator was administered. In the case of an inhibitory action, the strength of effect, following the second dose series of the mediator, was […] in comparison to that of the first (control) series.
For characterization of strength of the competitive antagonistic effect the pA2 value was determined according to the method of Schield [Br. J. Pharmacol. 4, 277 (1949)]. A pd'2 value was calculated [J. M. Van Rossum: Arch. Int. Pharmacodyn 143, 317 (1963)] to characterize the noncompatitive antagonistic effectivity. The higher the pA2 or pd'2 value, respectively were, the higher was the antagonistic effect.

[3] = test system: carrageenin-induced rat paw edema; experiment: Carrageenin-induced rat paw edema test; format: in vivo, rat (female CFY); details: for change in vivo at 50 mg/kg: Rattus norvegicus, po, 50 mg/kg (p.o.), read-out: Percentage of the protective effect; for Protective effect %: oral dose 20 mg/kg (Naproxen)
Procedure: Proc. Soc. Exp. Med. 111, 544 (1962)]. Female CFY rats weighing 100 to 120 g each were used after starvation for 24 hours. The inflammation was induced by injecting 0.1 ml of 1% carrageenin solution into the right hind paw plant. The severity of inflammation was determined by using an Ugo-Basile type plethysmometer. The measurement was carried out before and 1.5, 3 and 4.5 hours after induction of the inflammation. The animals were orally treated with the substance to be tested 1 hour before administration of carrageenin. The effect was expressed as percentage inhibition related to the control group.

[4] = test system: serotonin-induced constriction of the isolated tracheal smooth muscle of the guinea pig; experiment: Inhibition of the serotonin-induced constriction of isolated tracheal smooth muscle of guinea pig; details: isolated guinea pig trachea; for pd'2 value against serotonin: 15 min
Procedure: as §1
[modified method of J. C.
as §2, §3, §4, §5
A pd'2 value was calculated [J. M. Van Rossum: Arch. Int. […] The higher the pA2 or pd'2 value, respectively were, the higher was the antagonistic effect.

[5] = test system: active local anaphylactic reaction; experiment: Effect influencing the active local anaphylactic reaction on rat; format: in vivo, rat (female OFA); details: for Percentage of inhibition of the active local anaphylactic reaction: oral dose of 50 mg/kg, 30th minute after induction
Procedure: 1) The effect influencing the active local anaphylactic reaction was measured according to the method of M. Koltay [Arch. Allergy App. Immun. 71, 181 (1983)].
Female OFA rats weighing 160 to 180 g each were sensitized by bovine serum albumin (BSA) adsorbed to 50 μg of Al(OH)3 gel together with the simultaneous administration of Bordatella pertussis vaccine.
The anaphylactic reaction was elicited by injecting 100 μg of BSA into the right hind paw plant in the 14th day.
The measurements were carried out before and 30 minutes after eliciting the reaction. The animals were orally treated with the compound to be tested 1 hour before the injection of BSA. The results were expressed as percentage inhibition compared to the control group (average %±S.E.M.).

[6] = test system: dextran-induced rat paw edema; experiment: Dextran-induced rat paw edema test; format: in vivo; details: for Percentage of inhibition: 50 mg/kg (p.o.)
Procedure: 3) Dextran-induced rat paw edema test The method of S. Gourvaisier and R. Ducrot [Arch. Int. Pharmacodyn. Ther. 102, 33 (1955)] was employed. The method described for the carrageenin edema test was followed, except that the measurements were carried out 30, 60, 90, 120 and 180 minutes after induction of the inflammation.

With `COc1cc2c(cc1OC)C(=C(C#N)SCC(CN1CCOCC1)OC(=O)c1ccccc1)NCC2` (centres unmarked) [Example 25, 2-(6,7-dimethoxy-1,2,3,4-tetrahydro-1-isoquinolinylidene)-2-[2-benzoyloxy-3-(4-morpholinyl)propyl]mercaptoacetonitrile] the IC50 [1] was 417 nM, the IC50 [2] was 15.5 µM and the change in vivo at 50 mg/kg ([3]; 1.5 hours) was -26.6%. The change in vivo at 50 mg/kg ([3]; 3 hours) was -17.7% and the change in vivo at 50 mg/kg ([3]; 4.5 hours) was -16%.
For `CCOc1cc2c(cc1OCC)C(=C(C#N)SCC(CN1CCOCC1)OC(=O)c1ccccc1)NCC2` (centres unmarked) [Example 26, 2-(6,7-diethoxy-1,2,3,4-tetrahydro-1-isoquinolinylidene)-2-[2-benzoyloxy-3-(4-morpholinyl)-propyl]mercaptoacetonitrile hydrochloride], the IC50 [1] was 8710 nM and the IC50 [2] was 15.5 µM.
With `Cn1c(=O)c2[nH]cnc2n(C)c1=O` [theophylline, reference compound] the IC50 [1] was 1580 nM, the IC50 [2] was 0.372 µM and the “pd'2 value against serotonin” value [4] was 6.16. For the same molecule, the “pd'2 value against serotonin” value ([4]; listed as Theophylline) was 6.49.
Molecule `CCOc1cc2c(cc1OCC)C(=C(C#N)SCC(CN1CCOCC1)OC(C)=O)NCC2` (centres unmarked) [Example 24, 2-(6,7-diethoxy-1,2,3,4-tetrahydro-1-isoquinolinylidene)-2-[2-acetoxy-3-(4-morpholinyl)propyl]mercaptoacetonitrile] has an IC50 [1] of 1170 nM, an IC50 [2] of 9.55 µM and a change in vivo at 50 mg/kg ([3]; 1.5 hours) of -25.8%. The change in vivo at 50 mg/kg ([3]; 3 hours) was -20.3%, the change in vivo at 50 mg/kg ([3]; 4.5 hours) was -20% and the IC50 ([4]; Cavia porcellus, 0.25 h, read-out: pd'2 value against serotonin (converted)) was 8.91 µM.
`N#CC(SCC(O)CN1CCCCC1)=C1NCCc2ccccc21` (centres unmarked) [Example 14, 2-(1,2,3,4-tetrahydro-1-isoquinolinylidene)-2-[2-hydroxy-3-(1-piperidinyl)propyl]mercaptoacetonitrile] was tested, and the IC50 [1] was 26300 nM, the “Percentage of inhibition of the active local anaphylactic reaction” value [5] was -44.1% and the change in vivo at 50 mg/kg ([3]; 1.5 hours) was -20.9%. The change in vivo at 50 mg/kg ([3]; 3 hours) was -20% and the change in vivo at 50 mg/kg ([3]; 4.5 hours) was -20%.
Molecule `C[C@@H]1C[C@H]2[C@@H]3CCC4=CC(=O)C=C[C@]4(C)[C@@]3(F)[C@@H](O)C[C@]2(C)[C@@]1(O)C(=O)CO` [Dexamethasone, dexamethasone, reference compound] has a Protective effect % ([6]; oral dose 0.5 mg/kg (dexamethasone), 30 minutes) of 42.7%, a Protective effect % ([6]; oral dose 0.5 mg/kg (dexamethasone), 60 minutes) of 36.8% and a Protective effect % ([6]; oral dose 0.5 mg/kg (dexamethasone), 90 minutes) of 51.1%. For the same molecule, the Protective effect % ([6]; oral dose 0.5 mg/kg (dexamethasone), 120 minutes) was 52.1%, the Protective effect % ([6]; oral dose 0.5 mg/kg (dexamethasone), 180 minutes) was 45.5% and the “Protective effect % in the 30th minute” value ([5]; oral dose 0.5 mg/kg (Dexamethasone)) was 45.5%.
`NC1=NN(c2cccc(C(F)(F)F)c2)CC1` [BW 755C, reference compound] showed a Protective effect % ([6]; oral dose 50 mg/kg (BW-755C), 30 minutes) of 15.4%, a Protective effect % ([6]; oral dose 50 mg/kg (BW-755C), 60 minutes) of 12.3% and a Protective effect % ([6]; oral dose 50 mg/kg (BW-755C), 90 minutes) of 17.2%. For the same molecule, the Protective effect % ([6]; oral dose 50 mg/kg (BW-755C), 120 minutes) was 7.9%, the Protective effect % ([6]; oral dose 50 mg/kg (BW-755C), 180 minutes) was 11.3% and the “Protective effect % in the 30th minute” value ([5]; oral dose 50 mg/kg (BW 755C)) was 52.9%.
Molecule `COc1ccc2cc([C@H](C)C(=O)O)ccc2c1` [Naproxen, reference compound] has a Protective effect % ([6]; oral dose 20 mg/kg (Naproxen), 30 minutes) of 16.9%, a Protective effect % ([6]; oral dose 20 mg/kg (Naproxen), 60 minutes) of 20.1% and a Protective effect % ([6]; oral dose 20 mg/kg (Naproxen), 90 minutes) of 18.9%. The Protective effect % ([6]; oral dose 20 mg/kg (Naproxen), 120 minutes) was 23.3%, the Protective effect % ([6]; oral dose 20 mg/kg (Naproxen), 180 minutes) was 21.6% and the “Protective effect % in the 30th minute” value ([5]; oral dose 30 mg/kg (Naproxen)) was 2.2%. The Protective effect % ([3]; 1.5 hours) was 33.2%, the Protective effect % ([3]; 3 hours) was 44.3% and the Protective effect % ([3]; 4.5 hours) was 40.4%.
`COc1cc2c(cc1OC)C(=C(C#N)SCC(O)CN1CCCCCC1)NCC2` (centres unmarked) [Example 19, 2-(6,7-dimethoxy-1,2,3,4-tetrahydro-1-isoquinolinylidene)-2-(3-hexamethylenimino-2-hydroxypropyl)mercaptoacetonitrile] gave an IC50 [1] of 97700 nM, a Percentage of inhibition ([6]; 30 minutes) of -28.2% and a Percentage of inhibition ([6]; 60 minutes) of -26.6%. The Percentage of inhibition ([6]; 90 minutes) was -27.3%, the Percentage of inhibition ([6]; 120 minutes) was -27.8% and the Percentage of inhibition ([6]; 180 minutes) was -22.8%. The change in vivo at 50 mg/kg ([3]; 1.5 hours) was -29%, the change in vivo at 50 mg/kg ([3]; 3 hours) was -24.2% and the change in vivo at 50 mg/kg ([3]; 4.5 hours) was -19.5%.
Work on `COc1cc2c(cc1OC)C(=C(C#N)SCC(O)CN1CCOCC1)NCC2` (centres unmarked) [Example 17, 2-(6,7-dimethoxy-1,2,3,4-tetrahydro-1-isoquinolinylidene)-2-[2-hydroxy-3-(4-morpholinyl)propyl]mercaptoacetonitrile hydrochloride] yielded an IC50 [1] of 1820 nM, a Percentage of inhibition ([6]; 30 minutes) of 27.5% and a Percentage of inhibition ([6]; 60 minutes) of 32.5%. For the same molecule, the Percentage of inhibition ([6]; 90 minutes) was 32.1%, the Percentage of inhibition ([6]; 120 minutes) was 32.4% and the Percentage of inhibition ([6]; 180 minutes) was 20.3%. For the same molecule, the “Percentage of inhibition of the active local anaphylactic reaction” value [5] was -53.4%, the change in vivo at 50 mg/kg ([3]; 1.5 hours) was -4.2% and the change in vivo at 50 mg/kg ([3]; 3 hours) was 0%. It also gave a change in vivo at 50 mg/kg ([3]; 4.5 hours) of 0%.

— patent publication US5179089A, “Isoquinoline compounds, compositions and use” (Chinoin Gyogyszer es Vegyeszeti Termekek Gyara Rt., priority 1990, dated 1993)
